Measurements: paper PMC6522524 (Nature Communications, 2019)
Several values for one entry are separate records, joined by “and”; a condition that tells them apart may be missing. Identical values can stand only once. Counter-ions that a name gives are not always drawn. Like-named read-outs stand apart in the source and are kept apart here.

How the values were obtained:
[1] = tested on: HBV (ayw subtype, genotype D) replicon in HepG2.2.15 cells; experiment: microbe, parasite or virus in culture; type: cell-based, Hepatitis B virus; conditions: for inhibition at 1 µM: Hepatitis B virus
[2] = ref https://www.drugbank.ca/; cited from earlier work
[3] = tested on: HBV pgRNA/precore RNA in HepG2.2.15 cells; type: cell-based, Hepatitis B virus
Method: Fig. 1 Effect of FDA-approved compounds on HBV replication. a Schematic depiction of the primary screening analysis. HepG2.2.15 cells, which were stably transfected with HBV replicons, were treated with 978 FDA-approved drugs (1 μM) for 3 days. Entecavir (ETV) (1 μM) served as positive control. […] Quantitative RT-PCR was performed after 6 days of incubation. d Effect of the 19 candidates on intracellular HBV capsid assembly. Huh-7 cells were transfected with pCDNA3-Core and exposed after 12 h to the 19 candidates (1 μM) for 36 h. The cells were lysed and assembled HBV core particles were isolated by sucrose step gradient ultracentrifugation, resolved on 1% agarose gels, and subjected to immunoblot analysis with anti-HBV core antibody.
Quantitative RT-PCR with primers that detect three HBV regions (R1, R2, and R3, Supplementary Table 1) was used to measure HBV transcription. This RT-PCR detects pgRNA and precore RNA (3.5 kB), two HBV surface-encoding RNAs (2.5 kB and 2.1 kB), and HBx-encoding RNA (0.7 kB)[55]. PCR conditions were 95 °C for 10 min initially, then 50 cycles of 95 °C for 30 s, 60 °C for 60 s and 72 °C for 30 s, and finally 1 cycle of 95 °C for 60 s, 55 °C for 30 s and 95 °C for 30 s.
a Schematic depiction of the R1, R2, and R3 regions of the HBV genome that were targeted by
quantitative RT-PCR to quantitate the transcription of pgRNA, two HBV surface RNAs, and HBx RNA.
pGL3/HBV pgRNA promoter or pGL3/HBV sRNA promoter. The data shown in (b – d) represent two

[4] = HepG2.2.15, 72 h, 1 μM, 3 days, ETV =100%, read-out: % of inhibition (ETV =100%), initial screening (3days)
[5] = HepG2.2.15, 144 h, 6 days, ETV =100%, read-out: % of inhibition (ETV =100%), confirmation (6days)
[6] = HepG2.2.15, 72 h, read-out: % of inhibition (ETV =100%), initial screening (3days)
[7] = HepG2.2.15, 144 h, read-out: % of inhibition (ETV =100%), confirmation (6days)

Compound | inhibition at 1 µM [1, 4] [%] | inhibition at 1 µM [1, 5] [%] | pKa value (acidic) [2] | pKa value (basic) [2] | Relative HBV pgRNA/precore RNA level (Folds), AVERAGE ([3]; Fig. 1c, 6 days) [Folds] | Relative HBV pgRNA/precore RNA level (Folds), AVERAGE [3] [Folds] | other results
COc1cc(C)c(/C=C/C(C)=C/C=C/C(C)=C/C(=O)O)c(C)c1C [Acitretin] | 110 | 1.8 | 5.01 | -4.8 | 0.9923 |  | 
Cc1c(N(C)C)c(=O)n(-c2ccccc2)n1C [Amidopyrine] |  |  |  | 3.47 | 1.046 |  | % of inhibition (ETV =100%), initial screening (3days) ([1]; 1 μM, 3 days, ETV =100%): 111.6%; % of inhibition (ETV =100%), confirmation (6days) ([1]; 6 days, ETV =100%): 7.1%; Relative secreted HBV DNA level (Folds), AVERAGE ([1]; Fig. 1b, 6 days): 0.9368 Folds; Relative secreted HBV DNA level (Folds), individual samples ([1]; Fig. 1b, 6 days, Sample1-3): 0.9368 Folds and 0.9352 Folds and 0.9383 Folds; Relative HBV pgRNA/precore RNA level (Folds), individual samples ([3]; Fig. 1c, 6 days, Sample1-3): 1.129 Folds and 0.9386 Folds and 1.071 Folds
NCCc1ccc(O)c(O)c1 [Dopamine hydrochloride] |  |  | 10.01 | 9.27 |  | 1.103 | inhibition at 1 µM [1, 6]: 162%; inhibition at 1 µM [1, 7]: 67.9%
Clc1ccc(COC(Cn2ccnc2)c2ccc(Cl)cc2Cl)cc1 (stereo not shown) [Econazole nitrate] |  |  |  | 6.77 |  | 0.0453 | inhibition at 1 µM [1, 6]: 147%; inhibition at 1 µM [1, 7]: 27.5%
O=c1[nH]c(=O)n(C2CCCO2)cc1F (stereo not shown) [Ftorafur] | 131 | 64.7 | 8.08 | -4.3 | 0.977 |  | 
Clc1ccc(C(Cn2ccnc2)OCc2c(Cl)cccc2Cl)c(Cl)c1 (stereo not shown) [Isoconazole nitrate] | 148 | 41.4 |  | 6.77 | 1.034 |  | 
Clc1ccc(COC(Cn2ccnc2)c2ccc(Cl)cc2Cl)c(Cl)c1 (stereo not shown) [Miconazole] |  |  |  | 6.77 |  | 0.964 | inhibition at 1 µM [1, 6]: 132%; inhibition at 1 µM [1, 7]: -2.8%
OC(CNCC(O)C1CCc2cc(F)ccc2O1)C1CCc2cc(F)ccc2O1 (stereo not shown) [Nebivolol] | 103 | 78.4 | 13.52 | 8.9 | 0.9531 |  | 
O=C1NC(=O)C(c2ccccc2)(c2ccccc2)N1 [Phenytoin sodium] | 124 | -2.4 | 9.47 |  | 0.7935 |  | 
OC(CCN1CCCC1)(c1ccccc1)C1CCCCC1 (stereo not shown) [Procyclidine HCl] | 112 | 70.4 |  | 9.45 | 1.056 |  | 
CCCN(CCc1cccs1)[C@H]1CCc2c(O)cccc2C1 [Rotigotine] | 104 | 65.9 | 10.03 | 10.97 | 1.049 |  | 
O=N[O-].[Na+] [Sodium nitrite] |  |  |  |  |  | 0.04652 | % of inhibition (ETV =100%), confirmation (6days) [1]: 83.1%; Relative secreted HBV DNA level (Folds), AVERAGE [1]: 0.2643 Folds; Relative secreted HBV DNA level (Folds), individual samples [1]: 0.2643 Folds and 0.2628 Folds and 0.2659 Folds; % of inhibition (ETV =100%), initial screening (3days) ([1]; 1 µM): 152.7%; Relative HBV pgRNA/precore RNA level (Folds), individual samples [3]: 0.04803 Folds and 0.041 Folds and 0.05054 Folds
CC(C)NCC(O)c1ccc(NS(C)(=O)=O)cc1 (stereo not shown) [Sotalol] | 128 | 69.7 | 10.07 | 9.43 | 1.022 |  | 
CCOCC(O)COc1ccc(NC(=O)CC[S+](C)C)cc1 (stereo not shown) [Suplatast tosylate] | 125 | 76.2 | 12.7 |  | 1.034 |  | 
CN1C(C(=O)Nc2ccccn2)=C(O)c2sccc2S1(=O)=O [Tenoxicam] |  |  | 2.21 | 4.26 |  | 0.04619 | inhibition at 1 µM [1, 6]: 110%; inhibition at 1 µM [1, 7]: 79.4%
CC(C)(C)c1ccc(C(O)CCCN2CCC(C(O)(c3ccccc3)c3ccccc3)CC2)cc1 (stereo not shown) [Terfenadine] |  |  | 13.2 | 9.02 |  | 0.05435 | inhibition at 1 µM [1, 6]: 101%; inhibition at 1 µM [1, 7]: 83.6%
C[N+]1(C)[C@@H]2C[C@@H](OC(=O)C(O)(c3cccs3)c3cccs3)C[C@H]1[C@@H]1O[C@@H]12 [Tiotropium Bromide hydrate] | 117 | 4.9 | 10.35 | -4.3 | 1.071 |  | 
L-Adrenaline |  |  |  |  | 0.9192 |  | % of inhibition (ETV =100%), initial screening (3days) ([1]; 1 μM, 3 days, ETV =100%): 152.6%; % of inhibition (ETV =100%), confirmation (6days) ([1]; 6 days, ETV =100%): 1.5%; Relative secreted HBV DNA level (Folds), AVERAGE ([1]; Fig. 1b, 6 days): 0.9865 Folds; Relative secreted HBV DNA level (Folds), individual samples ([1]; Fig. 1b, 6 days, Sample1-3): 0.9865 Folds and 0.985 Folds and 0.9881 Folds; Relative HBV pgRNA/precore RNA level (Folds), individual samples ([3]; Fig. 1c, 6 days, Sample1-3): 1.032 Folds and 0.7969 Folds and 0.9286 Folds
